Test results reported in publication PMC6968633, “Synthesis, antibacterial and anticancer activity, and docking study of aminoguanidines containing an alkynyl moiety” (Journal of Enzyme Inhibition and Medicinal Chemistry, 2019).
In brackets after ≈: the same amount, converted by molar mass. Read-outs that look alike come from different tables or passages of the source.

What was measured:
[1] = tested on: Staphyiococcus aureus CMCC 25923; experiment: Antibacterial MIC, serial dilution; assay type: cell-based, Staphylococcus aureus
Experimental: (§1) Test bacteria were grown to mid-log phase in Mueller–Hinton broth (MHB) or Tryptone Soya Broth (TSB) and diluted 1000-fold in the same medium. Bacteria (10^5 CFU/mL) were inoculated into MHB or TSB and dispensed at 0.2 ml/well into a 96-well microtiter plate. As positive controls, gatifloxacin, moxifloxacin, norfloxacin, oxacillin, and penicillin were used. […] Bacterial growth was determined by measuring the absorption at 630 nm using a microplate reader. All experiments were carried out three times.
(§2) The evaluation of antibacterial activity of all compounds (3a–3j and 6a–6k) was performed by a serial dilution method to determine the MIC against a panel of pathogens comprising five Gram-positive strains (S. aureus (CMCC(B) 26003 and CMCC 25923), Streptococcus mutans BNCC 336931, Enterococcus faecalis CMCC 29212, and Bacillus subtilis CMCC 63501), four Gram-negative strains (E. coli (CMCC 25922 and CMCC 44568) and P. aeruginosa (CMCC 27853 and CMCC 10104)), as well as three methicillin-resistant clinical isolates (S. aureus ATCC 43300 and ATCC 33591, P. aeruginosa ATCC BAA-2111). The results are described in Tables 1 and 2. Gatifloxacin, moxifloxacin, norfloxacin, oxacillin, and penicillin were used as positive controls.

[2] = tested on: Pseudomonas aeruginosa CMCC 10104; experiment: Antibacterial MIC, serial dilution; assay type: cell-based; details: P. aeruginosa CMCC 10104, 24 h, 37 °C
Experimental: as §1, §2

[3] = tested on: Staphylococcus aureus CMCC(B)26003; experiment: Antibacterial MIC, serial dilution; assay type: cell-based
Experimental: as §1, §2

[4] = tested on: Enterococcus faecalis CMCC 29212; experiment: Antibacterial MIC, serial dilution; assay type: cell-based; details: E. faecalis CMCC 29212, 24 h, 37 °C
Experimental: as §1, §2

[5] = tested on: Pseudomonas aeruginosa CMCC 27853; experiment: Antibacterial MIC, serial dilution; assay type: cell-based
Experimental: as §1, §2

[6] = tested on: Streptococcus mutans BNCC 336931; experiment: Antibacterial MIC, serial dilution; assay type: cell-based; details: S. mutans BNCC 336931, 24 h, 37 °C
Experimental: as §1, §2

[7] = tested on: Bacillus subtilis CMCC 63501; experiment: Antibacterial MIC, serial dilution; assay type: cell-based
Experimental: as §1, §2

[8] = tested on: Escherichia coli CMCC 44568; experiment: Antibacterial MIC, serial dilution; assay type: cell-based
Experimental: as §1, §2

[9] = tested on: Escherichia coli CMCC 25922; experiment: Antibacterial MIC, serial dilution; assay type: cell-based
Experimental: as §1, §2

[10] = tested on: Staphylococcus aureus ATCC 33591; experiment: Antibacterial MIC, multidrug-resistant clinical isolate; assay type: cell-based; details: multidrug-resistant S. aureus ATCC 33591
Experimental: as §1, §2

[11] = tested on: Staphylococcus aureus ATCC 43300; experiment: as above; assay type: cell-based; details: multidrug-resistant S. aureus ATCC 43300
Experimental: as §1, §2

L02 = experiment: Cytotoxicity, CCK-8 assay, normal cell line; assay type: cell-based; details: L02 normal human hepatocytes, 48 h
Experimental: (§3) A lung cancer cell line (A549), gastric cancer cell line (SGC7901) and human hepatocytes (L02) were used to test the anticancer activity and cytotoxicity of the new compounds. 5-Fluorouracil (5-FU) was used as the positive control against cancer cell lines. The A549, SGC7901 and L02 cells were grown in Dulbecco’s modified Eagle’s medium (DMEM) supplemented with 10% foetal bovine serum (FBS) and antibiotics (100 U/mL penicillin-streptomycin). Cells at 80–90% confluence were split by trypsin (0.25% in PBS; pH 7.4), and the medium was changed at 24 h intervals. The cells were cultured at 37 °C in a 5% CO2 incubator. The cells were passaged three times, then approximately 1 × 10^4 cells were seeded into each well of a 96-well plate and allowed to incubate to allow attachment of the cells to the surface. After 24 h, the medium was replaced with DMEM supplemented with 10% FBS containing various concentrations (0.1, 0.3, 1, 3, 10, and 30 μg/mL) of test compounds. Each concentration was tested in triplicate. After 48 h treatment, 20 µL of CCK-8 solution was added to each well and the optical density measured at 450 nm after 3 h using a microplate reader. The IC50 values were defined as the concentrations inhibiting 50% of cell growth.

A549 = experiment: Cytotoxicity, CCK-8 assay; assay type: cell-based; details: Homo sapiens, A549 lung cancer cells, 48 h
Experimental: as §3

SGC7901 = experiment: Cytotoxicity, CCK-8 assay; assay type: cell-based; details: Homo sapiens, SGC-7901, SGC7901 gastric cancer cells, 48 h
Experimental: as §3

[12] = Staphylococcus aureus, CMCC25923, S. aureus CMCC 25923, 24 h, 37 °C, read-out: MIC
[13] = Pseudomonas aeruginosa, CMCC10104, read-out: MIC
[14] = Staphylococcus aureus, S. aureus CMCC(B)26003, 24 h, 37 °C, read-out: MIC
[15] = Enterococcus faecalis, CMCC29212, read-out: MIC
[16] = Pseudomonas aeruginosa, CMCC27853, P. aeruginosa CMCC 27853, 24 h, 37 °C, read-out: MIC
[17] = Streptococcus mutans, BNCC336931, read-out: MIC
[18] = Bacillus subtilis, CMCC63501, B. subtilis CMCC 63501, 24 h, 37 °C, read-out: MIC
[19] = Escherichia coli, CMCC44568, E. coli CMCC 44568, 24 h, 37 °C, read-out: MIC
[20] = Escherichia coli, CMCC25922, E. coli CMCC 25922, 24 h, 37 °C, read-out: MIC
[21] = Staphylococcus aureus, ATCC33591, read-out: MIC
[22] = Staphylococcus aureus, ATCC43300, read-out: MIC
[23] = Escherichia coli, CMCC44568, 24 h

Compound | melting point [°C] | MIC [1, 12] [µg/mL] | MIC [2, 13] [µg/mL] | MIC [3, 14] [µg/mL] | MIC [4, 15] [µg/mL] | MIC [5, 16] [µg/mL] | MIC [6, 17] [µg/mL] | MIC [7, 18] [µg/mL] | MIC [8, 19] [µg/mL] | MIC [9, 20] [µg/mL] | MIC [10, 21] [µg/mL] | MIC [11, 22] [µg/mL] | also measured
N=C(N)NN=Cc1ccc(C#Cc2cccc(F)c2)cc1 [Compound 3c, 2-(4-((3-Fluorophenyl)ethynyl)benzylidene)hydrazine-1-carboximidamide] | 223 to 224 | 4 (≈ 14.3 µM) | 2 (≈ 7.14 µM) | 1 (≈ 3.57 µM) | 1 (≈ 3.57 µM) | 16 (≈ 57.1 µM) | 2 (≈ 7.14 µM) | 1 (≈ 3.57 µM) | 4 (≈ 14.3 µM) | 2 (≈ 7.14 µM) | 1 (≈ 3.57 µM) | 2 (≈ 7.14 µM) | –
O=c1[nH]cc(F)c(=O)[nH]1 [5-Fluorouracil, reference compound] | – | – | – | – | – | – | – | – | – | – | – | – | IC50 (L02): 8.44 µg/mL (≈ 64.9 µM); IC50 (A549): 0.88 µg/mL (≈ 6.77 µM); IC50 (SGC7901): 2.56 µg/mL (≈ 19.7 µM)
N=C(N)NN=Cc1ccc(C#CC#Cc2ccc(Br)cc2)cc1 [Compound 6j, 2-(4-((4-Bromophenyl)buta-1,3-diyn-1-yl)benzylidene)hydrazine-1-carboximidamide] | 227 to 230 | > 128 | > 128 | 128 (≈ 350 µM) | 128 (≈ 350 µM) | > 128 | > 128 | > 128 | > 128 | > 128 | – | – | –
N=C(N)NN=Cc1ccc(C#Cc2ccc(F)cc2)cc1 [Compound 3d, 2-(4-((4-Fluorophenyl)ethynyl)benzylidene)hydrazine-1-carboximidamide] | 238 to 239 | 2 (≈ 7.14 µM) | 2 (≈ 7.14 µM) | 1 (≈ 3.57 µM) | 1 (≈ 3.57 µM) | 8 (≈ 28.5 µM) | 4 (≈ 14.3 µM) | 1 (≈ 3.57 µM) | 8 (≈ 28.5 µM) | 2 (≈ 7.14 µM) | 1 (≈ 3.57 µM) | 4 (≈ 14.3 µM) | –
N=C(N)NN=Cc1ccc(C#CC#Cc2cccc(Cl)c2)cc1 [Compound 6f, 2-(4-((3-Chlorophenyl)buta-1,3-diyn-1-yl)benzylidene)hydrazine-1-carboximidamide] | 198 to 201 | 8 (≈ 24.9 µM) | 16 (≈ 49.9 µM) | 1 (≈ 3.12 µM) | 0.5 (≈ 1.56 µM) | > 128 | 0.5 (≈ 1.56 µM) | 4 (≈ 12.5 µM) | 32 (≈ 99.8 µM) | 4 (≈ 12.5 µM) | – | – | –
N=C(N)NN=Cc1ccc(C#Cc2ccc(Br)cc2)cc1 [Compound 3j, 2-(4-((4-Bromophenyl)ethynyl)benzylidene)hydrazine-1-carboximidamide] | 242 to 243 | 1 (≈ 2.93 µM) | 128 (≈ 375 µM) | 0.5 (≈ 1.47 µM) | 0.5 (≈ 1.47 µM) | > 128 | 0.5 (≈ 1.47 µM) | 128 (≈ 375 µM) | 128 (≈ 375 µM) | 2 (≈ 5.86 µM) | 0.5 (≈ 1.47 µM) | 2 (≈ 5.86 µM) | –
N=C(N)NN=Cc1ccc(C#Cc2ccccc2)cc1 [Compound 3a, 2-(4-(Phenylethynyl)benzylidene)hydrazine-1-carboximidamide] | 225 to 226 | 4 (≈ 15.2 µM) | 4 (≈ 15.2 µM) | 1 (≈ 3.81 µM) | 1 (≈ 3.81 µM) | 16 (≈ 61 µM) | 4 (≈ 15.2 µM) | 2 (≈ 7.62 µM) | 4 (≈ 15.2 µM) | 4 (≈ 15.2 µM) | – | – | –
N=C(N)NN=Cc1ccc(C#CC#Cc2cccc(F)c2)cc1 [Compound 6c, 2-(4-((3-Fluorophenyl)buta-1,3-diyn-1-yl)benzylidene)hydrazine-1-carboximidamide] | 186 to 190 | 128 (≈ 421 µM) | 4 (≈ 13.1 µM) | 128 (≈ 421 µM) | 0.5 (≈ 1.64 µM) | > 128 | 0.5 (≈ 1.64 µM) | 2 (≈ 6.57 µM) | > 128 | 2 (≈ 6.57 µM) | – | – | –
N=C(N)NN=Cc1ccc(C#CC#Cc2ccccc2Br)cc1 [Compound 6h, 2-(4-((2-Bromophenyl)buta-1,3-diyn-1-yl)benzylidene)hydrazine-1-carboximidamide] | 217 to 219 | 32 (≈ 87.6 µM) | 8 (≈ 21.9 µM) | 1 (≈ 2.74 µM) | 0.5 (≈ 1.37 µM) | > 128 | 1 (≈ 2.74 µM) | 2 (≈ 5.48 µM) | 128 (≈ 350 µM) | 8 (≈ 21.9 µM) | – | – | –
N=C(N)NN=Cc1ccc(C#Cc2ccccc2Br)cc1 [Compound 3h, 2-(4-((2-Bromophenyl)ethynyl)benzylidene)hydrazine-1-carboximidamide] | 188 to 190 | 1 (≈ 2.93 µM) | 8 (≈ 23.4 µM) | 2 (≈ 5.86 µM) | 1 (≈ 2.93 µM) | > 128 | 2 (≈ 5.86 µM) | 2 (≈ 5.86 µM) | 4 (≈ 11.7 µM) | 4 (≈ 11.7 µM) | – | – | –
N=C(N)NN=Cc1ccc(C#Cc2ccccc2F)cc1 [Compound 3b, 2-(4-((2-Fluorophenyl)ethynyl)benzylidene)hydrazine-1-carboximidamide] | 189 to 190 | 8 (≈ 28.5 µM) | 8 (≈ 28.5 µM) | 1 (≈ 3.57 µM) | 1 (≈ 3.57 µM) | 128 (≈ 457 µM) | 4 (≈ 14.3 µM) | 2 (≈ 7.14 µM) | 8 (≈ 28.5 µM) | 4 (≈ 14.3 µM) | – | – | –
Cc1onc(-c2ccccc2)c1C(=O)N[C@@H]1C(=O)N2[C@@H]1SC(C)(C)[C@@H]2C(=O)O [Oxacillin, reference compound] | – | 0.125 (≈ 0.311 µM) | 128 (≈ 319 µM) | 0.125 (≈ 0.311 µM) | 128 (≈ 319 µM) | – | 0.125 (≈ 0.311 µM) | – | – | 128 (≈ 319 µM) | 8 (≈ 19.9 µM) | 64 (≈ 159 µM) | MIC ([5]; Pseudomonas aeruginosa, CMCC27853, 24 h): > 128 µg/mL; MIC ([7]; Bacillus subtilis, CMCC63501, 24 h): > 128 µg/mL; MIC [8, 23]: > 128 µg/mL
COc1c(N2C[C@@H]3CCCN[C@@H]3C2)c(F)cc2c(=O)c(C(=O)O)cn(C3CC3)c12 [Moxifloxacin, reference compound] | – | – | 4 (≈ 9.96 µM) | – | – | – | 0.5 (≈ 1.25 µM) | – | – | – | 0.25 (≈ 0.623 µM) | 0.5 (≈ 1.25 µM) | MIC ([1]; Staphylococcus aureus, CMCC25923, 24 h): 0.125 µg/mL (≈ 0.311 µM); MIC ([3]; Staphylococcus aureus, 24 h): 0.125 µg/mL (≈ 0.311 µM); MIC [8, 23]: 0.125 µg/mL (≈ 0.311 µM); MIC ([9]; Escherichia coli, CMCC25922, 24 h): 0.125 µg/mL (≈ 0.311 µM)
Penicillin [reference compound] | – | – | – | – | – | – | – | – | – | – | – | – | MIC ([1]; S. aureus CMCC 25923, 24 h, 37 °C): 0.125 µg/mL; MIC [2]: 32 µg/mL; MIC ([3]; S. aureus CMCC(B)26003, 24 h, 37 °C): 0.125 µg/mL; MIC [4]: 128 µg/mL; MIC ([5]; P. aeruginosa CMCC 27853, 24 h, 37 °C): >128 µg/mL; MIC [6]: 0.125 µg/mL; MIC ([7]; B. subtilis CMCC 63501, 24 h, 37 °C): 128 µg/mL; MIC ([8]; E. coli CMCC 44568, 24 h, 37 °C): >128 µg/mL; MIC ([9]; E. coli CMCC 25922, 24 h, 37 °C): 128 µg/mL; MIC [10]: >32 µg/mL; MIC ([10]; listed as penicillin): > 32 µg/mL; MIC [11]: 32 µg/mL
